Laboratory results published in patent publication US7087661B1, “Safe and effective biofilm inhibitory compounds and health-related uses thereof” (Cernofina, LLC, priority 1998, dated 2006).
Where “and” joins values, the source holds several entries; their conditions need not be identical. Equal entries are not always repeated. Structures can show the parent of a compound that is named as a salt.

Legend:
[1] = tested on: Oceanosprillum; experiment: Oceanosprillum adhesion test on glass slides; assay type: cell-based; settings: 5 mM in artificial seawater, 6-hour period
Method: Oceanosprillum adhesion test Each test consisted of a control set (with no sulfate esters) and sample sets containing the test molecules. The first test group consisted of a control sample set, a zosteric acid (5 mM) sample set, and an octyl sulfate (5 mM) sample set. The second test group consisted of a control sample set, a zosteric acid (5 mM) sample set, and a methyl sulfate (5 mM) sample set. Sample sets consisted of five 50 mL sterile centrifuge tubes, with each tube containing a glass microscope slide, 50 ml of artificial seawater (ASTM—American Society for testing and materials) with the dissolved sulfate ester, inoculated with an Oceanosprillum culture at 1×10^6 cells/mL. Sample sets were incubated at 23 C, with shaking so that the surface of the slides were horizontal. Over a 6-hour period, individual tubes were taken from the sample sets and tested for microbial adhesion.
(§1) Determination of bacterial adhesion. Samples were removed from the shaker and 1 mL of 50× acridine orange stain (0.5 g/L acridine powder in water) was added to the tube. The stain was allowed to react for 4 minutes. The slides were then removed and fitted with a long cover slip and immediately counted with an epifluorescent microscope fitted with a 100× (oil) objective lens on the under side of the slide. The size of the counting field was 10×10 μm. A total of 20 counts per slide were performed and averaged to yield the number of cells per μm^2, which was in turn converted to cells per mm^2. Error was assigned at 10% which is the standard accepted error for direct counting of bacterial cells.

[2] = tested on: Alteromonas atlantica; experiment: Alteromonas atlantica adhesion tests on glass slides; assay type: cell-based; settings: for Alteromonas atlantica adhesion relative to controls: 5 mM dissolved in modified ASTM seawater
Method: Alteromonas atlantica adhesion tests. The tests consisted of a control sample set, a zosteric acid (5 mM) sample set, an octyl sulfate (5 mM) sample set, and a methyl sulfate (5 mM) set. A sample set consisted of six 60 mL sterile centrifuge tubes. Each tube contained a glass microscope slide and 50 mL of modified ASTM seawater (American Society for Testing and Materials (1986) D1141-86, ASTM, Philadelphia, Pa.) with dissolved agent, inoculated with Alteromonas atlantica culture to an initial cell density of 1×10^6 cells/mL. The modified seawater consisted of normal ASTM seawater ingredients, however the carbon source glycerol, was only 1000th the normal strength, […], and was void of an amino acid source (casamino acids), in order to allow enough carbon for attachment, but not for significant cell growth.
as §1

[3] = tested on: sea urchin egg fertilization (sperm-egg fusion); experiment: Sea urchin fertilization assays; assay type: cell-based
Method: A simple sea urchin assay was used to detect and quantitate the ability of sulfate esters to block sperm-egg fusion. Sea urchin sperm was added to freshly collected eggs in the presence and absence of increasing amounts of the sulfate ester zosteric acid, and the eggs were subsequently scored for successful fertilization. Fertilization assays. Healthy sea urchins were induced to spawn by injection with 0.5 M KCL solution. Freshly collected eggs were gently washed and resuspended in filtered sea water (FSW, pH 8.2) and aliquotted into separate tubes for fertilization assays. Zosteric acid was added to each tube from a concentrated stock dissolved in FSW (pH 8.2), along with additional FSW to ensure a constant volume in each tube. Equal amounts of sperm were added to each tube and percent fertilization was determined by direct microscopic counting. Eggs with elevated fertilization membranes were scored as fertilized. Assays were performed at sperm-limiting concentrations that allowed 95–99% fertilization in the absence of zosteric acid.

[4] = tested on: polyclonal antibodies specific for zosteric acid; experiment: Preliminary testing of anti-zosteric acid polyclonal antibodies for cross reactivity; assay type: binding
From the text: To investigate the mechanism behind the AF activity of sulfate esters, polyclonal antibodies specific for the sulfate ester zosteric acid were generated (BAbCo, Berkeley, Calif.). […] These antibodies were then used to investigate whether the sulfate ester AF agent zosteric acid directly binds fouling organisms.

[5] = tested on: clot formation (prothrombin clotting time); experiment: Prothrombin clotting time assays; assay type: biochemical; settings: human serum
Method: Clotting assays. Clotting time assays were performed using commercial kits (Sigma Chemical Co.) for prothrombin clotting time. Serum was harvested from 30 mL of whole human blood obtained by venous puncture using centrifugation to remove blood cells. Zosteric acid and high MW heparin were added to separate aliquots of the serum, producing concentrations from 0 to 5.0 mg/mL. Clotting times were determined for each concentration in duplicate according to the protocols provided with the kit.

[6] = tested on: equine erythrocytes; experiment: Red blood cell agglutination assays; assay type: cell-based; settings: for concentrations producing erythrocyte agglutination: washed equine erythrocytes, 0.005 to 5.0 mg/mL tested
Method: Red Blood Cell agglutination assays. Washed equine erythrocytes suspended in 1 mg/mL sodium citrate were placed in microtiter plates designed with wells containing hemispherical bottoms. Negative controls (no zosteric acid) were diluted in isotonic saline solution. Zosteric acid treated cells were diluted with saline containing zosteric acid at eight concentrations ranging from 0.005 to 5.0 mg/mL. Positive controls were exposed to the same range of high molecular weight heparin sulfate concentrations.

[7] = tested on: Aureobasidium pullulans; experiment: Fungal attachment and growth assay on glass slides; assay type: cell-based, Aureobasidium pullulans (ATCC 34261)
Method: Aureobasidium pullulans (ATCC 34261) was grown on potato-dextrose agar and harvested according to ASTM G-21-90 protocols (American Society for Testing and Materials (1986) […]-86, ASTM, Philadelphia, Pa.). The resulting spore suspension was used to inoculate liquid culture tubes containing 35 mL of growth medium (nutrient salts with 5 mM sucrose) and 15 mM zosteric acid. Zosteric acid-free medium was prepared as a control. A sterile microscope slide was added to each tube, the tubes were sealed and placed on a rotary shaker table at room temperature. One tube was harvested each day by removing the slide and counting the number of attached spores by direct microscopic counts, as described above.

[8] = tested on: agglutination of sea urchin eggs by purified bindin; experiment: Sea urchin egg agglutination assays with purified bindin; assay type: cell-based
Method: Sea urchin egg agglutination assays. Freshly spawned eggs were suspended in acidic seawater (pH 5) for 5 minutes to remove the outer jelly coat, and then washed 5 times in normal FSW (pH 8.2). Eggs were then transferred into plastic petri dished containing a range of zosteric acid concentrations and incubated for 15 minutes. Purified bindin (D. Epel, Stanford University) was added to the eggs at concentrations ranging from 1.2 to 12 μg/mL. The mixtures were gently agitated on a rotary shaker for 5 minutes and visually examined for agglutination. Bovine serum albumen (BSA) was used in separate assays to control for nonspecific agglutination of the dejellied eggs.

[9] = tested on: Shewanella putrefaciens; experiment: Bacterial agglutination assays (growth and agglutination in liquid culture); assay type: cell-based
Method: To further investigate the role of sulfate esters in agglutination, the ability of sulfate esters to facilitate the agglutination of bacterial cells was investigated. Log-phase cultures grown in the presence of zosteric acid were monitored spectrophotometrically (OD600) for growth, and for agglutination in the presence of increasing amounts of zosteric acid. Bacterial agglutination assays. Log-phase cultures of Shewanella putrefaciens were grown in complete seawater medium containing zosteric acid at a range of concentrations up to 20 mM. Cultures were counted for viable colony forming units at eight hours.

[10] = tested on: Shewanella putrefaciens cell surface; experiment: Cell surface binding assay (immuno-gold staining, electron microscopy); settings: cultures grown with 16 mM zosteric acid
Method: The marine bacterium Shewanella putrefaciens were grown in cultures containing zosteric acid and were subsequently examined for bound zosteric acid using immuno-gold staining with the antibody described above.
Cell Surface Binding Assays. The marine bacterium Shewanella putrefaciens was grown in marine broth in the presence of 16 mM zosteric acid. Dense log phase cells were harvest after 5 hours growth, and preserved in 0.5× Kamofsky's fixative (2% formaldehyde, 2.5% gluturaldehyde, 0.05 M sodium cacodylate, 0.25 M sucrose, pH 7.4) for 2 hours, and then transferred to a cacodylate buffer (0.05 M sodium cacodylate, pH 7.4) for storage. Cells were prepared for electron microscopic examination using immuno-gold staining techniques (Harlow, E. and Laine, D., Antibodies, A Laboratory Manual, Cold Spring Harbor Laboratory, 359–421; Roth et al., J. Histochem. Cytochem. 26: 1074–1081 (1978)). The primary antibody used in this study was an anti-zosteric acid polyclonal antibody (BAbCo, Richmond, Calif.).

[11] = tested on: natural marine algal biofilms; experiment: Marine algal biofilm development on RTV-11 silicone coating in running raw seawater; assay type: cell-based, marine algae; settings: 25% (wt/wt) in RTV-11 silicone coated on glass slides; 26 days in running seawater
From the text: A 30% (w/v) solution of octyl sulfate in water (Stepan Chemical Co.) was evaporated to dryness under a stream of room temperature air, to recover pure octyl sulfate (FIG. 1). The dry octyl sulfate was incorporated into RTV-11 silicone polymer at a loading of 25% (wt/wt) (RTV-11 silicone, catalyst and primer obtained from General Electric). The mixture was applied to three glass slides previously primed with silicone primer, and allowed to cure to dryness. Three primed glass slides coated with pure RTV-11 served as agent-free controls. After complete drying, the absorption properties of each slide were measured using a Shimadzu UV-2101 spectrophotometer fitted with an integrating sphere. Slides were then placed in a tank of running raw seawater and allowed to incubate outdoors in natural sunlight for 26 days. Water temperature was nominally 15 C. Spectrophotometric determination of biofilm accumulation was measured on each slide periodically. Relative algal biomass was calculated as the ratio of absorption at 680 nm, contributed by chlorophyll a, to that at 750 nm, a wavelength not absorbed by chlorophyll, to correct for differences in turbidity and scattering properties of the different slides.

COS(=O)(=O)O [methyl sulfate]
Oceanosprillum adhesion (bacterial attachment) relative to control [1]: roughly a two fold reduction
Alteromonas atlantica adhesion ([2]; 5 mM, constant after 120 minutes, controls greater than 700,000): 150,000 cells/mm^2

CCC(C)(C)c1ccc(OS(=O)(=O)Cl)cc1 [4-PPCS, 4 t-Pentyl Phenyl Chlorosulfate]
impact on sperm motility ([3]; contact with 4-PPCS): no adverse impacts
inhibition when more sperm were added to the medium ([3]; exceeding the binding capacity of 4-PPCS in solution): could be washed out
effectiveness in blocking sea urchin fertilization ([3]; in the range of 1–10 mM): ~100%

O=C(O)C=Cc1ccccc1 [cinnamic acid]
cross reactivity with antibodies specific for zosteric acid [4]: no cross reactivity

COc1cc(/C=C/C(=O)O)ccc1O [ferulic acid]
cross reactivity with antibodies specific for zosteric acid [4]: no cross reactivity

heparin [reference compound]
concentrations effective at preventing clot formation [5]: below 0.1 mg/ml
reduction of fertilization ([3]; 1 mg/mL): approximately 50%
concentrations producing erythrocyte agglutination [6]: greater than 0.75 mg/mL

O=C(O)/C=C/c1ccc(OS(=O)(=O)O)cc1 [zosteric acid]
Oceanosprillum adhesion (bacterial attachment) relative to control [1]: roughly a two fold reduction
concentrations effective at preventing clot formation [5]: exceeding 10 mg/ml
filamentous growth or mycelial development of colonies ([7]; 15 mM in liquid culture): no evidence of filamentous growth or mycelial development
germinated fungal colonies on slides ([7]; 15 mM, after 5 days incubation, control more than 600): less than 20 germinated fungal colonies/mm^2
growth of fungal spores in the medium ([7]; 15 mM, clouding of tubes after Day 1): observed to grow
concentration range effective in blocking sea urchin fertilization [3]: 1 to 10 mM
fertilization remaining ([3]; 1 mg/mL): 21%
effectiveness at inhibiting fertilization relative to heparin ([3]; equal mass concentrations, 1 mg/mL): at least twice as effective
concentrations that completely blocked fertilization ([3]; sea urchin eggs, sperm-limiting concentrations): higher than 0.5 mg/mL and > 1.5 mM
effect on sperm viability or motility ([3]; sea urchin sperm exposed to zosteric acid): no detected effect
reversibility of fertilization inhibition ([3]; unfertilized eggs of highest treatment washed and re-exposed to fresh sperm): reversible
Agglutination ([8]; [ZA] 0.015 mg mL^−1): Yes
Agglutination ([8]; [ZA] 0.03 mg mL^−1): Yes
Agglutination ([8]; [ZA] 0.075 mg mL^−1): Yes
Agglutination ([8]; [ZA] 0.15 mg mL^−1): Yes
Agglutination ([8]; [ZA] 0.30 mg mL^−1): Yes
Agglutination ([8]; [ZA] 0.75 mg mL^−1): Yes
Agglutination ([8]; [ZA] 1.5 mg mL^−1): No
Agglutination ([8]; [ZA] 3 mg mL^−1): No
Alteromonas atlantica adhesion relative to controls [2]: significant reduction
counts of viable colony forming units ([9]; at eight hours, among the different cultures): no difference in cell density
agglutination of S. putrefaciens ([9]; concentration dependent, up to 20 mM): significant agglutination
growth of S. putrefaciens in liquid culture ([9]; concentrations up to 16 mM): did not inhibit the growth
zosteric acid bound to bacterial cell surface (immuno-gold staining) [10]: bound to the surface of the bacteria
reactivity with cell surface glycoproteins and polysaccharides relative to high molecular weight heparin ([6]; from erythrocyte agglutination concentrations): eight times more reactive
concentrations producing erythrocyte agglutination [6]: ≥ 0.175 mg/mL

CCCCCCCCOS(=O)(=O)[O-].[Na+] [octyl sulfate]
Oceanosprillum adhesion (bacterial attachment) relative to control [1]: to an even greater extent than zosteric acid
algal biofilm development relative to controls lacking octyl sulfate [11]: five fold less
Alteromonas atlantica adhesion relative to controls [2]: slightly higher inhibitory activity than zosteric acid

O=C(O)/C=C/c1ccc(O)cc1 [coumaric acid, reference compound]
effect on egg fertilization ([3]; 1 mg/mL): no effect
